Measurements: patent publication US10292981B2, “Oxazoline and isoxazoline derivatives as CRAC modulators” (LUPIN LIMITED, priority 2010, dated 2019)

Each compound was assayed on IL-2 secretion, Jurkat T cells (assay: Inhibition of IL-2 secretion (PHA-stimulated Jurkat T cells, ELISA)). Conditions: Homo sapiens; Jurkat T cells stimulated with PHA, 20 to 24 hours.
Type: cell-based
Description: The CRAC channel modulatory activity of the compounds were thus evaluated by measuring the secretion of IL-2 by antigen stimulated T-cells in vitro. Alternatively, such activity can also be evaluated by assay methods known to one skilled in the art.
Inhibition of IL-2 secretion: Jurkat T cells were seeded at a density of 0.5 to 1 million cells per well in RPMI medium. Test compounds from this invention were added to the cells at different concentrations. This was followed by the addition of PHA, a T cell mitogen after 10 minutes.
The cells were then incubated for 20 to 24 hours in a CO2 incubator at 37° C. After incubation with the compounds, cells were centrifuged, collected the supernatant and processed for ELISA to quantitate the amount of IL-2 secreted. A commercial ELISA kit (R&D Systems, Inc. Minneapolis, Minn., USA) was used to estimate the IL-2 concentrations. Amount of IL-2 secreted by cells stimulated with PHA was considered as a 100% maximal signal and the decrease in amount of IL-2 secreted by cells treated with the test compounds was expressed as percent inhibition of the maximal signal. The dose response data was analyzed using 4-parametric sigmoidal dose response (variable slope) curve-fit.

Row | Compound | IC50 [nM]
1 | Cc1c(-c2cnc(NC(=O)C3CCc4ccccc4C3)cn2)cccc1-c1nn(C)c(=O)o1 (racemic) [Example 138, (R/S)-N-(5-(2-Methyl-3-(4-methyl-5-oxo-4,5-dihydro-1,3,4-oxadiazol-2-yl)phenyl)pyrazin-2-yl)-1,2,3,4-tetrahydronaphthalene-2-carboxamide] | 100 to 1000
2 | Cc1ccc(C2=NOC(C)(C)C2=O)cc1-c1ccc(NC(=O)c2c(F)cccc2F)cc1 [Example 3] | < 100
3 | Cc1ccc(C2=NOC(C)(C)C2=O)cc1-c1ccc(NC(=O)c2c(F)cccc2F)nc1 [Example 4, N-(5-(5-(5,5-Dimethyl-4-oxo-4,5-dihydroisoxazol-3-yl)-2-methylphenyl)pyridin-2-yl)-2,6-difluorobenzamide] | 100 to 1000
4 | CCc1ccc(C2=NOC(C)(C)C2=O)cc1-c1ccc(NC(=O)c2c(F)cccc2F)cn1 [Example 7, N-(6-(5-(5,5-dimethyl-4-oxo-4,5-dihydroisoxazol-3-yl)-2-ethylphenyl)pyridin-3-yl)-2,6-difluorobenzamide] | 100 to 1000
5 | CC(C)c1ccc(C2=NOC(C)(C)C2=O)cc1-c1cnc(NC(=O)c2c(F)cccc2F)cn1 [Example 8, N-(5-(5-(5,5-dimethyl-4-oxo-4,5-dihydroisoxazol-3-yl)-2-isopropylphenyl)pyrazin-2-yl)-2,6-difluorobenzamide] | 100 to 1000
6 | CC1(C)ON=C(c2ccc(C(C)(C)C)c(-c3ccc(NC(=O)c4c(F)cccc4F)cc3)c2)C1=O [Example 10, N-(2′-(tert-butyl)-5′-(5,5-dimethyl-4-oxo-4,5-dihydroisoxazol-3-yl)-[1,1′-biphenyl]-4-yl)-2,6-difluorobenzamide] | > 1000
7 | CC1(C)ON=C(c2ccc(Cl)c(-c3ccc(NC(=O)c4c(F)cccc4F)cc3)c2)C1=O [Example 11, N-(2′-chloro-5′-(5,5-dimethyl-4-oxo-4,5-dihydroisoxazol-3-yl)-[1,1′-biphenyl]-4-yl)-2,6-difluorobenzamide] | 100 to 1000
8 | COc1ccc(C2=NOC(C)(C)C2=O)cc1-c1ccc(NC(=O)c2snnc2C)cc1 [Example 16, N-(5′-(5,5-Dimethyl-4-oxo-4,5-dihydroisoxazol-3-yl)-2′-methoxy-[1,1′-biphenyl]-4-yl)-4-methyl-1,2,3-thiadiazole-5-carboxamide] | < 100
9 | COc1ccc(C2=NOC(C)(C)C2=O)cc1-c1ccc(NC(=O)c2c(F)cccc2F)nc1 [Example 17, N-(5-(5-(5,5-dimethyl-4-oxo-4,5-dihydroisoxazol-3-yl)-2-methoxyphenyl)pyridin-2-yl)-2,6-difluorobenzamide] | > 1000
10 | COc1ccc(C2=NOC(C)(C)C2=O)cc1-c1ccc(NC(=O)c2c(F)cccc2F)cn1 [Example 18, N-(6-(5-(5,5-dimethyl-4-oxo-4,5-dihydroisoxazol-3-yl)-2-methoxyphenyl)pyridin-3-yl)-2,6-difluorobenzamide] | 100 to 1000
11 | CC(=O)Nc1ccc(C2=NOC(C)(C)C2=O)cc1-c1ccc(NC(=O)c2c(F)cccc2F)cc1 [Example 19, N-(2′-acetamido-5′-(5,5-dimethyl-4-oxo-4,5-dihydroisoxazol-3-yl)-[1,1′-biphenyl]-4-yl)-2,6-difluorobenzamide] | < 100
12 | COC1C(c2ccc(C)c(-c3cnc(NC(=O)c4c(F)cccc4F)cn3)c2)=NOC1(C)C (stereo not drawn) [Example 23, 2,6-difluoro-N-(5-(5-(4-methoxy-5,5-dimethyl-4,5-dihydroisoxazol-3-yl)-2-methylphenyl)pyrazin-2-yl)benzamide] | 100 to 1000
13 | COC1C(c2ccc(C)c(-c3ccc(NC(=O)c4c(F)cccc4F)cc3)c2)=NOC1(C)C (stereo not drawn) [Example 24, 2,6-Difluoro-N-(5′-(4-methoxy-5,5-dimethyl-4,5-dihydroisoxazol-3-yl)-2′-methyl-[1,1′-biphenyl]-4-yl)benzamide] | 100 to 1000
14 | COc1c(C2=NOC(C)(C)C2=O)cccc1-c1ccc(NC(=O)c2c(F)cccc2F)cc1 [Example 31, N-(3′-(5,5-Dimethyl-4-oxo-4,5-dihydroisoxazol-3-yl)-2′-methoxy-[1,1′-bipheny;]-4-yl)-2,6-difluorobenzamide] | 100 to 1000
15 | Cc1ccc(-c2nn(C)c(=O)o2)cc1-c1ccc(NC(=O)c2c(F)cccc2F)cc1 [Example 33, 2,6-Difluoro-N-(2′-methyl-5′-(4-methyl-5-oxo-4,5-dihydro-1,3,4-oxadiazol-2-yl)-[1,1′-biphenyl]-4-yl)benzamide] | < 100
16 | CCn1nc(-c2ccc(C)c(-c3ccc(NC(=O)c4c(F)cccc4F)cc3)c2)oc1=O [Example 34, N-(5′-(4-Ethyl-5-oxo-4,5-dihydro-1,3,4-oxadiazol-2-yl)-2′-methyl-[1,1′-biphenyl]-4-yl)-2,6-difluorobenzamide] | < 100
17 | COc1ccc(-c2nn(C)c(=O)o2)cc1-c1ccc(NC(=O)c2c(F)cccc2F)cc1 [Example 40, 2,6-Difluoro-N-(2′-methoxy-5′-(4-methyl-5-oxo-4,5-dihydro-1,3,4-oxadiazol-2-yl)[1,1′-biphenyl]-4-yl)benzamide] | < 100

Row | Compound | IC50 [nM]
18 | Cn1nc(-c2ccc(Cl)c(-c3ccc(NC(=O)c4c(F)cccc4F)cc3)c2)oc1=O [Example 46, N-(2′-Chloro-5′-(4-methyl-5-oxo-4,5-dihydro-1,3,4-oxadiazol-2-yl)-[1,1′-biphenyl]-4-yl)-2,6-difluorobenzamide] | < 100
19 | Cc1ccc(C2=NOC(C)(C)C2)cc1-c1cnc(NC(=O)c2c(F)cccc2F)cn1 [Example 53] | 100 to 1000
20 | Cc1ccc(C2=NOC3(CCCCC3)C2=O)cc1-c1ccc(NC(=O)c2c(F)cccc2F)cc1 [Example 58, 2,6-Difluoro-N-(2′-methyl-5′-(4-oxo-1-oxa-2-azaspiro[4.5]dec-2-en-3-yl)-[1,1′-biphenyl]-4-yl)benzamide] | 100 to 1000
21 | Cc1ccc(C2=NC(C)(C)CO2)cc1-c1ccc(NC(=O)c2c(F)cccc2F)cc1 [Example 61, N-(5′-(4,4-dimethyl-4,5-dihydrooxazol-2-yl)-2′-methyl-[1,1′-biphenyl]-4-yl)-2,6-difluorobenzamide] | 100 to 1000
22 | Cc1ccc(C2=NOC(C)(C)C2=O)cc1-c1cnc(NC(=O)c2cc(F)ccc2F)cn1 [Example 67, N-(5-(5-(5,5-Dimethyl-4-oxo-4,5-dihydroisoxazol-3-yl)-2-methylphenyl)pyrazine-2-yl)-2,5-difluorobenzamide] | 100 to 1000
23 | Cc1ccc(C2=NOC(C)(C)C2=O)cc1-c1cnc(NC(=O)c2ccc(F)cc2)cn1 [Example 69, N-(5-(5-(5,5-Dimethyl-4-oxo-4,5-dihydroisoxazol-3-yl)-2-methylphenyl)pyrazine-2-yl)-4-fluorobenzamide] | > 1000
24 | Cc1ccc(C2=NOC(C)(C)C2=O)cc1-c1cnc(NC(=O)c2ccccc2Cl)cn1 [Example 78, 2-Chloro-N-(5-(5-(5,5-dimethyl-4-oxo-4,5-dihydroisoxazol-3-yl)-2-methylphenyl)pyrazin-2-yl)benzamide] | 100 to 1000
25 | Cc1ccc(C2=NOC(C)(C)C2=O)cc1-c1cnc(NC(=O)c2c(F)cccc2Cl)cn1 [Example 80, 2-Chloro-N-(5-(5-(5,5-dimethyl-4-oxo-4,5-dihydroisoxazol-3-yl)-2-methylphenyl)pyrazin-2-yl)-6-fluorobenzamide] | < 100
26 | Cc1ccc(-c2nn(C)c(=O)o2)cc1-c1cnc(NC(=O)c2c(F)cccc2F)cn1 [Example 87, 2,6-Difluoro-N-(5-(2-methyl-5-(4-methyl-5-oxo-4,5-dihydro-1,3,4-oxadiazol-2-yl)phenyl)pyrazin-2-yl)benzamide] | < 100
27 | COc1ccc(-c2nn(C)c(=O)o2)cc1-c1cnc(NC(=O)c2c(F)cccc2F)cn1 [Example 93, 2,6-Difluoro-N-(5-(2-methoxy-5-(4-methyl-5-oxo-4,5-dihydro-1,3,4-oxadiazol-2-yl)phenyl)pyrazin-2-yl)benzamide] | < 100
28 | Cc1ccc(C2=NOC(C)(C)C2=O)cc1-c1cnc(NC(=O)c2c(Cl)cncc2Cl)cn1 [Example 103, 3,5-Dichloro-N-(5-(5-(5,5-dimethyl-4-oxo-4,5-dihydroisoxazol-3-yl)-2-methylphenyl)pyrazin-2-yl)isonicotinamide] | 100 to 1000
29 | Cc1ccc(C2=NOC(C)(C)C2=O)cc1-c1cnc(NC(=O)c2ccncc2F)cn1 [Example 107, N-(5-(5-(5,5-dimethyl-4-oxo-4,5-dihydroisoxazol-3-yl)-2-methylphenyl)pyrazin-2-yl)-3-fluoroisonicotinamide] | 100 to 1000
30 | Cc1ccc(C2=NOC(C)(C)C2=O)cc1-c1cnc(NC(=O)c2cccnc2C)cn1 [Example 113, N-(5-(5-(5,5-dimethyl-4-oxo-4,5-dihydroisoxazol-3-yl)-2-methylphenyl)pyrazin-2-yl)-2-methylnicotinamide] | 100 to 1000
31 | Cc1ccc(C2=NOC(C)(C)C2=O)cc1-c1cnc(NC(=O)c2c(F)cncc2F)cn1 [Example 114, N-(5-(5-(5,5-dimethyl-4-oxo-4,5-dihydroisoxazol-3-yl)-2-methylphenyl)pyrazin-2-yl)-3,5-difluoroisonicotinamide] | < 100
32 | Cc1ccc(C2=NOC(C)(C)C2=O)cc1-c1cnc(C(=O)Nc2c(F)cccc2F)cn1 [Example 121, N-(2,6-Difluorophenyl)-5-(5-(5,5-dimethyl-4-oxo-4,5-dihydroisoxazol-3-yl)-2-methylphenyl)pyrazine-2-carboxamide] | 100 to 1000
33 | CC(C)Oc1ccc(C2=NOC(C)(C)C2=O)cc1-c1cnc(NC(=O)c2c(F)cccc2F)cn1 [Example 126, N-(5-(5-(5,5-dimethyl-4-oxo-4,5-dihydroisoxazol-3-yl)-2-isopropoxy-phenyl)pyrazin-2-yl)-2,6-difluorobenzamide] | 100 to 1000
